Consider 5 compounds from patent publication US20260001928A1 (CORTERIA PHARMACEUTICALS, priority 2022, published 2026).

*1 amine or outer side, *2 acyl side, *3 side chain or, on linkers, in order; H or OH if unused. Where a SMILES comes first, the peptide text is derived from it. Side-chain parts run from the residue outwards. [ ]: non-standard residue; d: D form. The star is where a group is joined. C18 diacid = O=C(O)CCCCCCCCCCCCCCCCC(=O)*; γGlu = O=C(O)[C@H](CCC(=O)[*:2])N[*:1]; αMeK = C[C@](N)(CCCCN)C(=O)O; Nva = CCC[C@H](N)C(=O)O; Dap = NC[C@H](N)C(=O)O; AEEA = NCCOCCOCC(=O)O Where only a bound is given, the exact number is not on record here.

A word on the EC50: it is the concentration at which the effect is half-maximal. Higher therefore signals weaker potency.

One test addresses T1, CFR1R receptor (Homo sapiens, UniProt P34998).
T1 construct: host or cells: CHO-K1 (clone 2)
T1 sequence (P34998 24-415): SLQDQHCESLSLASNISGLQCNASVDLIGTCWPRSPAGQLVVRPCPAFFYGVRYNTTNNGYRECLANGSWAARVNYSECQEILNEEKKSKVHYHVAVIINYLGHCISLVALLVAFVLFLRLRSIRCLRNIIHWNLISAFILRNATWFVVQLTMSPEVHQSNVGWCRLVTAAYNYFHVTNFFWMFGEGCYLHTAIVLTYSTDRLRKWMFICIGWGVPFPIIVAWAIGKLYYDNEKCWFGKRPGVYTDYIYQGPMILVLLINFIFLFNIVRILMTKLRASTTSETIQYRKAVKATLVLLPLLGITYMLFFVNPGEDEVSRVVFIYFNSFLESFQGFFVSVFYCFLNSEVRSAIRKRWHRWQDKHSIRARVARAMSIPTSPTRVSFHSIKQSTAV
The experiment in a line: Activity at anti-target CFR1R receptor, cAMP assay in CRF1R-overexpression CHO-K1 cells. Particulars: 100% = Sauvagine at 100 nM; for EC50: cAMP. It counts as cell-based. The method in brief:
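Uses frozen stocks of CHO-K1 clone 2 cells overexpressing human CRF1R, plated at 4000 cells/well final, with cAMP measured by the same protocol as the TeloHAEC line. Full-activation control: 100 nM Sauvagine.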

The next test concerns the target T2, human CRF2a receptor (Homo sapiens, UniProt Q13324).
T2 construct: expressed in transfected cells; host or cells: TeloHEAC cells
T2 sequence (Q13324 1-411): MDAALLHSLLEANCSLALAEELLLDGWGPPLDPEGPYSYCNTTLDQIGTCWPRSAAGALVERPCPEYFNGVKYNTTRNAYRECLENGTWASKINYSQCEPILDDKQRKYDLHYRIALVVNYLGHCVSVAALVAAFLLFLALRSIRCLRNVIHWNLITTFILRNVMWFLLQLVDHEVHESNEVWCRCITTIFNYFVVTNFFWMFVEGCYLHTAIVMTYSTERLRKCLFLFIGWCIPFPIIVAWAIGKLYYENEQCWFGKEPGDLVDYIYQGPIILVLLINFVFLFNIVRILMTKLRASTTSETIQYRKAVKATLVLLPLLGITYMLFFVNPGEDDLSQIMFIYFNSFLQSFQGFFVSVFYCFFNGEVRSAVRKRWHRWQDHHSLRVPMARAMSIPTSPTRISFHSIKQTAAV
The experiment in a line: Activity at human CRF2a receptor, cAMP functional assay in TeloHEAC cells. Particulars: TeloHEAC cells stably expressing human CRF2a receptor, relative to urocortin 2 (100 nM = 100%). It counts as cell-based. The method in brief: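 cAMP accumulation was measured by HTRF 665/620 nm ratio after 30 min at 37° C compound exposure (16 twofold dilutions) of CRF2a-expressing TeloHEAC cells, 10000/well, in HEPES-buffered HBSS plus IBMX. Activity was normalised to urocortin 2 at 100 nM (100%), and EC50 was the concentration giving half-maximal activation.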

Take `CC[C@H](C)[C@H](NC(C)=O)C(=O)N[C@H](C(=O)N[C@@H](CC(C)C)C(=O)N[C@@H](CO)C(=O)N[C@@H](CC(C)C)C(=O)N[C@@H](CC(=O)O)C(=O)N[C@H](C(=O)N1CCC[C@H]1C(=O)N[C@H](C(=O)N[C@@H](CCCCN)C(=O)N[C@@H](CC(C)C)C(=O)N[C@@H](CCCCNC(=O)COCCOCCNC(=O)COCCOCCNC(=O)CC[C@H](NC(=O)CCCCCCCCCCCCCCCCC(=O)O)C(=O)O)C(=O)N[C@@H](CCCCN)C(=O)N[C@H](C(=O)N[C@@H](CC(C)C)C(=O)N[C@@H](CC(C)C)C(=O)N[C@@H](CCC(=O)O)C(=O)N[C@@H](CCC(N)=O)C(=O)N[C@@H](CCC(=O)O)C(=O)N[C@@H](CCCCN)C(=O)N[C@@H](CCC(N)=O)C(=O)N[C@@H](CCCCN)C(=O)N[C@@H](CCCCN)C(=O)N[C@@H](CCC(N)=O)C(=O)N[C@@H](CCCNC(=N)N)C(=O)N[C@@H](CCC(=O)O)C(=O)N[C@@H](CCC(N)=O)C(=O)N[C@@H](C)C(=O)N[C@@H](CCC(=O)O)C(=O)N[C@H](C(=O)N[C@@H](CC(N)=O)C(=O)N[C@H](C(=O)N[C@@H](CCC(N)=O)C(=O)N[C@H](C(=O)N[C@@H](CC(C)C)C(=O)N[C@@H](C)C(=O)N[C@@H](CCC(N)=O)C(=O)N[C@H](C(N)=O)C(C)C)[C@@H](C)CC)C(C)C)[C@@H](C)O)[C@@H](C)CC)[C@@H](C)CC)C(C)C)C(C)C` [compound 102] (Ac-IVLSLDVPIKLK([AEEA-AEEA-γGlu-C18 diacid])KILLEQEKQKKQREQAETNVQILAQV-NH2): at CFR1R receptor, the “Emax (% I)” value was −5 % I and the EC50 was above 250 nM. Also, a half-maximal effect on human CRF2a receptor (EC50) was put at 17.6 nM.
In the case of `CC[C@H](C)[C@H](NC(C)=O)C(=O)N[C@H](C(=O)N[C@@H](CC(C)C)C(=O)N[C@@H](CO)C(=O)N[C@@H](CC(C)C)C(=O)N[C@@H](CC(=O)O)C(=O)N[C@@H](C(=O)N1CCC[C@H]1C(=O)N[C@H](C(=O)N[C@@H](CCCCN)C(=O)N[C@@H](CC(C)C)C(=O)N[C@@H](CCCCNC(=O)COCCOCCNC(=O)COCCOCCNC(=O)CC[C@H](NC(=O)CCCCCCCCCCCCCCCCC(=O)O)C(=O)O)C(=O)N[C@@H](CCCCN)C(=O)N[C@H](C(=O)N[C@@H](CC(C)C)C(=O)N[C@@H](CC(C)C)C(=O)N[C@@H](CCC(=O)O)C(=O)N[C@@H](CCC(N)=O)C(=O)N[C@@H](CCC(=O)O)C(=O)N[C@@H](CCCCN)C(=O)N[C@@H](CCC(N)=O)C(=O)N[C@@H](CCCCN)C(=O)N[C@@H](CCCCN)C(=O)N[C@@H](CCC(N)=O)C(=O)N[C@@H](CCCNC(=N)N)C(=O)N[C@@H](CCC(=O)O)C(=O)N[C@@H](CCC(N)=O)C(=O)N[C@@H](C)C(=O)N[C@@H](CCC(=O)O)C(=O)N[C@H](C(=O)N[C@@H](CC(N)=O)C(=O)N[C@H](C(=O)N[C@@H](CCC(N)=O)C(=O)N[C@H](C(=O)N[C@@H](CC(C)C)C(=O)N[C@@H](C)C(=O)N[C@@H](CCC(N)=O)C(=O)N[C@H](C(N)=O)C(C)C)[C@@H](C)CC)C(C)C)[C@@H](C)O)[C@@H](C)CC)[C@@H](C)CC)C(C)C)C(C)C` [compound 103] (Ac-IVLSLD[dV]PIKLK([AEEA-AEEA-γGlu-C18 diacid])KILLEQEKQKKQREQAETNVQILAQV-NH2), the “Emax (% I)” value at CFR1R receptor stood at 3 % I. Also, the EC50 at CFR1R receptor was above 250 nM; at human CRF2a receptor, 3.09 nM.
The matching figures for `CCC[C@H](NC(=O)[C@H](CC(N)=O)NC(=O)[C@@H](NC(=O)[C@H](CCC(=O)O)NC(=O)[C@H](C)NC(=O)[C@H](CCC(N)=O)NC(=O)[C@H](CCC(=O)O)NC(=O)[C@H](CCCNC(=N)N)NC(=O)[C@H](CCC(N)=O)NC(=O)[C@H](CCCCN)NC(=O)[C@H](CCCCN)NC(=O)[C@H](CCC(N)=O)NC(=O)[C@H](CCCCN)NC(=O)[C@H](CCC(=O)O)NC(=O)[C@H](CCC(N)=O)NC(=O)[C@H](CCC(=O)O)NC(=O)[C@H](CC(C)C)NC(=O)[C@H](CC(C)C)NC(=O)[C@@H](NC(=O)[C@H](CCCCN)NC(=O)[C@H](CCCCNC(=O)COCCOCCNC(=O)COCCOCCNC(=O)CC[C@H](NC(=O)CCCCCCCCCCCCCCCCC(=O)O)C(=O)O)NC(=O)[C@H](CC(C)C)NC(=O)[C@H](CCCCN)NC(=O)[C@@H](NC(=O)[C@@H]1CCCN1C(=O)[C@H](NC(=O)[C@H](CC(=O)O)NC(=O)[C@H](CC(C)C)NC(=O)[C@H](CO)NC(=O)[C@H](CC(C)C)NC(=O)[C@@H](NC(=O)[C@@H](NC(C)=O)[C@@H](C)CC)C(C)C)C(C)C)[C@@H](C)CC)[C@@H](C)CC)[C@@H](C)O)C(=O)N[C@@H](CCC(N)=O)C(=O)N[C@H](C(=O)N[C@@H](CC(C)C)C(=O)N[C@@H](C)C(=O)N[C@@H](CCC(N)=O)C(=O)N[C@H](C(N)=O)C(C)C)[C@@H](C)CC` [compound 105] (Ac-IVLSLD[dV]PIKLK([AEEA-AEEA-γGlu-C18 diacid])KILLEQEKQKKQREQAETN[Nva]QILAQV-NH2): 10 % I, above 250 nM and 0.87 nM.
As to `CC[C@H](C)[C@H](NC(C)=O)C(=O)N[C@H](C(=O)N[C@@H](CC(C)C)C(=O)N[C@@H](CO)C(=O)N[C@@H](CC(C)C)C(=O)N[C@@H](CC(=O)O)C(=O)N[C@@H](C(=O)N1CCC[C@H]1C(=O)N[C@H](C(=O)N[C@@H](CCCCN)C(=O)N[C@@H](CC(C)C)C(=O)N[C@@H](CCCCNC(=O)COCCOCCNC(=O)COCCOCCNC(=O)CC[C@H](NC(=O)CCCCCCCCCCCCCCCCC(=O)O)C(=O)O)C(=O)N[C@@H](CCCCN)C(=O)N[C@H](C(=O)N[C@@H](CC(C)C)C(=O)N[C@@H](CC(C)C)C(=O)N[C@@H](CCC(=O)O)C(=O)N[C@@H](CCC(N)=O)C(=O)N[C@@H](CCC(=O)O)C(=O)N[C@@H](CCCCN)C(=O)N[C@@H](CCC(N)=O)C(=O)N[C@@H](CCCCN)C(=O)N[C@@H](CCCCN)C(=O)N[C@@H](CCC(N)=O)C(=O)N[C@@H](CCCNC(=N)N)C(=O)N[C@@H](CCC(=O)O)C(=O)N[C@@H](CCC(N)=O)C(=O)N[C@@H](C)C(=O)N[C@@H](CCC(=O)O)C(=O)N[C@H](C(=O)N[C@@H](CC(N)=O)C(=O)N[C@@](C)(CCCCN)C(=O)N[C@@H](CCC(N)=O)C(=O)N[C@H](C(=O)N[C@@H](CC(C)C)C(=O)N[C@@H](C)C(=O)N[C@@H](CCC(N)=O)C(=O)N[C@H](C(N)=O)C(C)C)[C@@H](C)CC)[C@@H](C)O)[C@@H](C)CC)[C@@H](C)CC)C(C)C)C(C)C` [compound 106] (Ac-IVLSLD[dV]PIKLK([AEEA-AEEA-γGlu-C18 diacid])KILLEQEKQKKQREQAETN[αMeK]QILAQV-NH2), at CFR1R receptor, the “Emax (% I)” value stood at 6 % I and the EC50 is above 250 nM. Also, the midpoint of the response on human CRF2a receptor, the EC50, lay at 0.35 nM.
The matching figures for `CC[C@H](C)[C@H](NC(C)=O)C(=O)N[C@H](C(=O)N[C@@H](CC(C)C)C(=O)N[C@@H](CO)C(=O)N[C@@H](CC(C)C)C(=O)N[C@@H](CC(=O)O)C(=O)N[C@@H](C(=O)N1CCC[C@H]1C(=O)N[C@H](C(=O)N[C@@H](CCCCN)C(=O)N[C@@H](CC(C)C)C(=O)N[C@@H](CCCCNC(=O)COCCOCCNC(=O)COCCOCCNC(=O)CC[C@H](NC(=O)CCCCCCCCCCCCCCCCC(=O)O)C(=O)O)C(=O)N[C@@H](CCCCN)C(=O)N[C@H](C(=O)N[C@@H](CC(C)C)C(=O)N[C@@H](CC(C)C)C(=O)N[C@@H](CCC(=O)O)C(=O)N[C@@H](CCC(N)=O)C(=O)N[C@@H](CCC(=O)O)C(=O)N[C@@H](CCCCN)C(=O)N[C@@H](CCC(N)=O)C(=O)N[C@@H](CCCCN)C(=O)N[C@@H](CCCCN)C(=O)N[C@@H](CCC(N)=O)C(=O)N[C@@H](CCCNC(=N)N)C(=O)N[C@@H](CCC(=O)O)C(=O)N[C@@H](CCC(N)=O)C(=O)N[C@@H](C)C(=O)N[C@@H](CCC(=O)O)C(=O)N[C@H](C(=O)N[C@@H](CC(N)=O)C(=O)N[C@@H](CN)C(=O)N[C@@H](CCC(N)=O)C(=O)N[C@H](C(=O)N[C@@H](CC(C)C)C(=O)N[C@@H](C)C(=O)N[C@@H](CCC(N)=O)C(=O)N[C@H](C(N)=O)C(C)C)[C@@H](C)CC)[C@@H](C)O)[C@@H](C)CC)[C@@H](C)CC)C(C)C)C(C)C` [compound 107] (Ac-IVLSLD[dV]PIKLK([AEEA-AEEA-γGlu-C18 diacid])KILLEQEKQKKQREQAETN[Dap]QILAQV-NH2): 0 % I, above 250 nM and 1.43 nM.
